Patent US20220175761A1, “BI-LIGAND DRUG CONJUGATE AND USE THEREOF” (COHERENT BIOPHARMA (SUZHOU), LIMITED, priority 2019, published 2022)

What was measured:
Test in all cases: Inhibition of cell line proliferation, CCK8
Format in all cases: cell-based
[1] = test system: CFPAC-1 (human pancreatic cancer cells); settings: CFPAC-1, 68-72 hours, CCK8
Description: Experimental operations: PANC-1 and CFPAC-1 cells were prepared in advance, counted, and plated in 96-well cell culture plates at a cell density of 4×10^4 cells/ml (100 μl/well); negative control and blank control wells were set on each plate. After adherent cell culture overnight, the diluted samples to be tested were added at 50 μl/well. The plates were placed in an incubator at 37° C., 5% CO2 and cultured for 68-72 hours. To each well, 15 μl (10% of the liquid volume in a well) of a color developing solution from CCK8 was added; and the plates were incubated at 37° C. for 45-70 minutes and each plate was read at 450 nm on a microplate reader. The data was edited using SoftMax Pro and a 4-P fitting curve was plotted.
(§1) Experimental operations: LNCaP, SK-BR-3, NCI-H226, CFPAC-1 and PANC-1 cells were prepared in advance and counted; with a culture medium (IMDM+10% FBS+1× L-Glutamine+1×P/S), the cells LNCaP, SK-BR-3 and CFPAC-1 were diluted to 4×10^4 cells/ml, NCI-H226 was diluted to 2.0×10^4 cells/ml and PANC-1 was diluted to 3.0×10^4 cells/ml; the diluted cell solution was plated in 96-well plates at 100 μl/well; and negative control and blank control wells were set on each plate. After adherent cell culture overnight, the diluted samples to be tested were added at 50 μl/well. The plates were placed in an incubator at 37° C., 5% CO2 and cultured for 68-72 hours. To each well, 15 μl (10% of the liquid volume in a well) of a color developing solution from CCK8 was added; and the plates were incubated at 37° C. for 45-70 minutes and each plate was read at 450 nm on a microplate reader. The data was edited using SoftMax Pro and a 4-P fitting curve was plotted.
(§2) Experimental Operations: LNCaP, SK-BR-3, MDA-MB-468 and CFPAC-1 cells were prepared in advance and counted; with a culture medium (IMDM+10% FBS+1× L-Glutamine+1×P/S), the cells LNCaP, SK-BR-3, MDA-MB-468 and CFPAC-1 were diluted to 4×10^4 cells/ml; the diluted cell solution was plated in 96-well plates at 100 µl/well; and negative control and blank control wells were set on each plate. After adherent cell culture overnight, the diluted samples to be tested were added at 50 μl/well. The plates were placed in an incubator at 37° C., 5% CO2 and cultured for 68-72 hours. To each well, 15 μl (10% of the liquid volume in a well) of a color developing solution from CCK8 was added; and the plates were incubated at 37° C. for 45-70 minutes and each plate was read at 450 nm on a microplate reader. The data was edited using SoftMax Pro and a 4-P fitting curve was plotted.
as §2, with “Operations: LNCaP, MDA-MB-468, CFPAC-1 and PANC-1” for “Operations: LNCaP, SK-BR-3, MDA-MB-468 and CFPAC-1”, “CFPAC-1 and PANC-1 cells were” for “MDA-MB-468 and CFPAC-1 cells were”, “cells LNCaP, MDA-MB-468 and” for “cells LNCaP, SK-BR-3, MDA-MB-468 and”, “to 4×10^4 cells/ml, and PANC-1 was diluted to 3.0×10^4 cells/ml; the” for “to 4×10^4 cells/ml; the”, “at 100 μl/well; and negative” for “at 100 µl/well; and negative”
Experimental operations: NCI-H226, CFPAC-1 and MDA-MB-468 cells were prepared in advance and counted; MDA-MB-468 and CFPAC-1 cells were plated at a density of 2×10^4 cells/ml (100 μl/well) and NCI-H226 cells were plated at a density of 1×10^4 cells/ml (100 μl/well) in 96-well plates; and negative control and blank control wells were set on each plate. After adherent cell culture overnight, the diluted samples to be tested were added at 50 μl/well. The plates were placed in an incubator at 37° C., 5% CO2 and cultured for 68-72 hours. […]

[2] = test system: NCI-H226 (human lung cancer cells); settings: NCI-H226, 68-72 hours, CCK8
Description: as §1
(§3) Experimental operations: NCI-H226, CFPAC-1 and MDA-MB-468 cells were prepared in advance and counted; MDA-MB-468 and CFPAC-1 cells were plated at a density of 2×10^4 cells/ml (100 μl/well) and NCI-H226 cells were plated at a density of 1×10^4 cells/ml (100 μl/well) in 96-well plates; and negative control and blank control wells were set on each plate. After adherent cell culture overnight, the diluted samples to be tested were added at 50 μl/well. The plates were placed in an incubator at 37° C., 5% CO2 and cultured for 68-72 hours. To each well, 15 μl (10% of the liquid volume in a well) of a color developing solution from CCK8 was added; and the plates were incubated at 37° C. for 45-70 minutes and each plate was read at 450 nm on a microplate reader. The data was edited using SoftMax Pro and a 4-P fitting curve was plotted.

[3] = test system: MDA-MB-468 (human breast cancer cells); settings: MDA-MB-468, 68-72 hours, CCK8
Description: as §2
as §2, with “Operations: LNCaP, MDA-MB-468, CFPAC-1 and PANC-1” for “Operations: LNCaP, SK-BR-3, MDA-MB-468 and CFPAC-1”, “CFPAC-1 and PANC-1 cells were” for “MDA-MB-468 and CFPAC-1 cells were”, “cells LNCaP, MDA-MB-468 and” for “cells LNCaP, SK-BR-3, MDA-MB-468 and”, “to 4×10^4 cells/ml, and PANC-1 was diluted to 3.0×10^4 cells/ml; the” for “to 4×10^4 cells/ml; the”, “at 100 μl/well; and negative” for “at 100 µl/well; and negative”
as §3

Compound: CCCC(=O)N[C@@H](Cc1ccccc1)C(=O)N[C@H]1CSSC[C@@H](C(=O)N[C@H](C(=O)N[C@@H](CCCCNC(=O)[C@H](CCC(=O)O)NC(=O)CCOCCOCCOCCOCCNC(=O)[C@H](CCC(=O)O)NC(=O)[C@H](CSC2CC(=O)N(CCCCCC(=O)NCC(=O)NCC(=O)N[C@@H](Cc3ccccc3)C(=O)NCC(=O)NCOCC(=O)N[C@H]3CCc4c(C)c(F)cc5nc6c(c3c45)Cn3c-6cc4c(c3=O)COC(=O)[C@]4(O)CC)C2=O)NC(=O)CC[C@H](NC(=O)c2ccc(NCc3cnc4[nH]c(N)nc(=O)c4n3)cc2)C(=O)O)C(N)=O)[C@@H](C)O)NC(=O)[C@H]([C@@H](C)O)NC(=O)[C@H](CCCCN)NC(=O)[C@H](Cc2c[nH]c3ccccc23)NC(=O)[C@H](Cc2ccc(O)cc2)NC1=O (stereo partly drawn) [CR19426]
- IC50 [1]: 1660 nM
- IC50 [2]: 4390 nM
- IC50 [3]: 2300 nM

Compound: CC[C@@]1(O)C(=O)OCc2c1cc1n(c2=O)Cc2c-1nc1cc(F)c(C)c3c1c2[C@@H](NC(=O)CO)CC3 [Dxd0017, reference compound]
- IC50 [1]: 6.4 nM
- IC50 [2]: 8 nM
- IC50 [3]: 6.1 nM

Compound: CCc1c2c(nc3ccc(O)cc13)-c1cc3c(c(=O)n1C2)COC(=O)[C@]3(O)CC [SN-38, reference compound]
- IC50 [1]: 5.5 nM
- IC50 [2]: 17.3 nM
- IC50 [3]: 13.6 nM
